PubChem BioAssay (NCI)
Where “and” joins values, the source holds several entries; their conditions need not be identical. Identical values can stand only once.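 48-hour exposure; five concentrations; linearly interpolated endpoints. GI50: concentration for 50% inhibition of growth. At the TGI there is no net growth.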

Assays:
Experiment in all cases: NCI anticancer screen, dose series, 48 h
[1] = tested on: NCI-H23 lung
[2] = tested on: UACC-62 melanoma
[3] = tested on: TK-10 renal
[4] = tested on: A549 NSCLC
[5] = tested on: EKVX NSCLC
[6] = tested on: U251 CNS
[7] = tested on: NCI-H522 lung
[8] = tested on: SK-MEL-2 melanoma
[9] = tested on: OVCAR-3 ovarian
[10] = tested on: MDA-MB-231 breast

Structure (SMILES) | TGI [1] | TGI [2] | TGI [3] [µM] | TGI [4] | TGI [5] | TGI [6] | TGI [7] | TGI [8] | TGI [9] | TGI [10] | GI50 [4] | GI50 [6] | GI50 [7] | GI50 [8] | GI50 [9] | GI50 [1] [µM] | GI50 [2] [µM] | GI50 [3] [µM] | GI50 [5] [µM] | GI50 [10] [µM]
CCOC(=O)C(Cc1cccn1C(=O)OC(C)(C)C)[N+](=O)[O-] (stereo not given) | > 100 µM | 42.9 µM | 50.3 | > 100 µM | > 100 µM | 50.9 µM | 40.8 µM | 53.9 µM | 98.2 µM | 44.7 µM |  |  |  |  |  |  |  |  |  | 
CC(=O)OC[C@@H](OC(C)=O)[C@H](OC(C)=O)[C@@H]1OC(C)(C)O[C@@H]1C1SCCCS1 | > 100 µM | > 100 µM | > 100 | > 100 µM | > 100 µM | > 100 µM | > 100 µM | > 100 µM | > 100 µM | > 100 µM |  |  |  |  |  |  |  |  |  | 
O=S(=O)(/N=C(\NO)Nc1ccc(Cl)cc1)c1cccc2nsnc12 | > 100 µM | 53.1 µM | > 100 | > 100 µM | 66 µM | > 100 µM | 28.9 µM | 39.2 µM | 70 µM | > 100 µM |  |  |  |  |  |  |  |  |  | 
CC1OC(OC2C(OC(=O)[C@]34CCC(C)(C)C[C@H]3C3=CC[C@@H]5[C@@]6(C)CC[C@H](OC7OC(C(=O)O)C(O)C(OC8OCC(O)C(O)C8O)C7O)C(C)(C)[C@@H]6CC[C@@]5(C)[C@]3(C)CC4)OCC(O)C2O)C(O)C(OC2OCC(O)C(O)C2O)C1OC1OCC(O)C(OC2OCC(O)C(O)C2O)C1O (stereo not given in full) | 21.7 µM and 33 µM | 36.1 µM and 58.1 µM | 24 | 16.9 µM and 28.4 µM | 22.6 µM and 35.7 µM | 24.8 µM and 62 µM | 7.93 µM and 25.9 µM | 14.5 µM and 34.2 µM | 50.4 µM and > 100 µM | 14.2 µM and 12.9 µM | 5.06 µM and 14.3 µM | 10.9 µM and 24.2 µM | 2.53 µM and 12.3 µM | 6.31 µM and 17.3 µM | 13 µM and 35 µM |  |  |  |  | 
CC(=O)OC1COC(Nc2nc(NCc3ccccc3)n(C)c(=O)c2N=O)C(OC(C)=O)C1OC(C)=O (stereo not given) | > 10 µM | > 10 µM | > 10 | > 10 µM | > 10 µM | > 10 µM | > 10 µM | > 10 µM | > 10 µM | > 10 µM |  |  |  |  |  |  |  |  |  | 
COc1c(O)cc2c(c1O)C(=O)/C(=C/c1ccc(O)cc1)CO2 | > 100 µM | 40 µM | 85 | > 100 µM | 71.9 µM | > 100 µM | 33.8 µM | > 100 µM | 55.5 µM | > 100 µM |  |  |  |  |  |  |  |  |  | 
c1c[nH]c(C23C4C5C6C4C2C6C53)n1 (stereo not given) | > 100 µM | > 100 µM | > 100 | > 100 µM | > 100 µM | > 100 µM | > 100 µM | > 100 µM | > 100 µM | > 100 µM |  |  |  |  |  |  |  |  |  | 
COc1ccc(N2C(=O)C3c4[nH]c5ccc(F)cc5c4C4CCC(c5ccccc5)CC4C3C2=O)cc1 (stereo not given) | 44.5 µM | 27.6 µM | 70.1 | > 100 µM | 63 µM | 27.1 µM | 39.1 µM | 59.6 µM | > 100 µM | 44 µM |  |  |  |  |  |  |  |  |  | 
Oc1ccc(Cl)cc1CN1CCN(Cc2cc(Cl)ccc2O)C1 | 5.53 µM | 3.94 µM | 9.69 | 9.85 µM | 6.09 µM | 15 µM | 13.2 µM | 4.45 µM | 11.8 µM | 10.2 µM |  |  |  |  |  |  |  |  |  | 
CN(c1ccccc1Cl)S(=O)(=O)c1ccc([N+](=O)[O-])cc1 | > 100 µM | > 100 µM | > 100 | > 100 µM | > 100 µM | > 100 µM | > 100 µM | > 100 µM | > 100 µM | > 100 µM |  |  |  |  |  |  |  |  |  | 
CC(C)=CCC/C(C)=C/CC/C(C)=C/CC/C(=C/CC/C(C)=C\CC/C(C)=C/CC/C(C)=C/CC/C(C)=C/Cc1cc(O)ccc1O)CO | 4.89 µM | 5.17 µM | 19.5 | 22.6 µM | 33.5 µM | > 28.5 µM | 6.26 µM | 11.5 µM | 16.5 µM | > 78.8 µM |  |  |  |  |  |  |  |  |  | 
O=C(Nc1ccc(-n2ccc3c(NC(=O)c4ccccc4)ncnc32)cc1)Nc1cccc(Cl)c1Cl | 11 µM | 3.29 µM | 2.34 | 2.22 µM | 4.59 µM | 1.4 µM | 3.11 µM | 3.88 µM | 2.75 µM | 3.05 µM | 0.952 µM | 0.571 µM | 0.972 µM | 1.33 µM | 1.19 µM | 1.64 | 1.02 | 1.01 | 1.3 | 1.02
Cc1cn([C@@H]2O[C@H](CO[Si](C)(C)C(C)(C)C)[C@]3(O[C@H]3C(=O)NN)[C@H]2O[Si](C)(C)C(C)(C)C)c(=O)[nH]c1=O | 30 µM | 24 µM | 26.9 | 16.6 µM | 22.4 µM | 14.5 µM | 5.47 µM | 17.4 µM | 15.9 µM | 13.7 µM |  |  |  |  |  |  |  |  |  | 
O=CC12C3CCC1C2C(=O)C3 (stereo not given) | > 100 µM | > 100 µM | > 100 | > 100 µM | > 100 µM | > 100 µM | > 100 µM | > 100 µM | > 100 µM | > 100 µM |  |  |  |  |  |  |  |  |  | 
